# Results published in paper PMC3049593 (British Journal of Cancer, 2011).
# Key:
# [1] = blood pharmacokinetics of [3H]-PG545 in Hep3b tumour-bearing mice; format: in vivo; settings: for AUC0−t / Cmax / Tmax / t½: blood, 20 mg kg^−1 every 96 h
# Method: Analysis of the tumour [^3H]-PG545 concentration vs time data required use of a more physiologically based PK model such that tumour concentrations were estimated from the tumour mass being perfused with blood containing [^3H]-PG545 and where the blood [^3H]-PG545 concentration changed over time. […]
# (§1) Pharmacokinetic sampling and analysis
# (§2) Samples were collected from three animals at each of four time points – 12 hours, 24 hours, 48 hours and 96 hours post-treatment. At each of these times, whole blood was collected by cardiac puncture and tumours were excised. After collection, 0.2 mL of whole blood was added to a glass scintillation vial to which 1 mL Solvable was added.
# (§3) Samples were incubated for one hour at 55-60°C. 0.1 mL of 0.1 M EDTA-di-sodium salt solution and 0.3 mL to 0.5 mL of 30% hydrogen peroxide in 0.1 mL aliquots were added to the sample. Samples were gently agitated between additions to allow reaction foaming to subside. Samples were incubated for 30 minutes at room temperature. Vials were capped tightly and incubated again at 55 – 60 °C fo r 1 hour. Samples were cooled to room temperature and 15 mL of ULTIMA Gold added.
# (§4) For tumour samples, 100 mg of tissue was placed in a 20 mL glass scintillation vial and 2 mL of Solvable added. The samples were incubated at 50 - 60 °C for 1 hour with occasional swirling. Samples were cooled to room temperature and for tumours, 0.3 mL of 30% hydrogen peroxide in three aliquots of 0.1 mL were added. The samples were again incubated at 50 - 60 °C for 1 hour with occasional swirling. Tumours samples were […]
# (§5) then treated with 15 mL of ULTIMA Gold. To count radioactivity, a Tri-Carb 2800TR liquid scintillation counter from PerkinElmer was used at the Institute of Medical and Veterinary Science (Adelaide, Australia). All parameters were calculated using the QuantaSmart software package. Where DPM values were missing, the following procedure was performed. Efficiency was calculated by generating an efficiency curve using complete samples (where efficiency = Counts Per Minute/Disintegrations Per Minute), and plotted these values against the provided corresponding transformed spectral index of external standard (tSIE) values.
# (§6) The pharmacokinetic parameters, Cmax (maximum plasma concentration), Tmax (time of maximum plasma concentration), kelim (terminal elimination rate constant), t½ (half-life), and AUC (area under the concentration versus time curve) were derived from the blood [3H]-PG545 concentration versus time data using model independent methods. In addition, a linear pharmacokinetic model comprising mono-exponential absorption and bi-exponential disposition and elimination was used to simultaneously model the mean blood concentration versus time data for [3H]-PG545 and the following pharmacokinetic parameters, Cmax and Tmax, t½, AUC0-t and AUC0-∞ for [3H]-PG545 were estimated.
# (§7) Analysis of the tumour [3H]-PG545 concentration versus time data required use of a more physiologically-based pharmacokinetic model such that tumour concentrations were estimated on the basis of the tumour mass being perfused with blood containing [3H]- […]
# (Applied Biosystems) preceded by a Spark Symbiosis Direct On-line Solid Phase Extraction system. Briefly, using a deep-well 96-well plate, 100 µL plasma was mixed with 10 µL standard solution (or water for unknowns) plus 10 µL internal standard solution (PG562 at 100 µg/mL (deionised water for double blank)).This was then mixed for at least 1 min (Ratek Platform Shaker) and incubated at room temperature for 20 mins prior to addition of 25 µL SDS solution (10 mg SDS in 1 mL deionised water) + 75 µL CHAPS solution (50 mg CHAPS in 1 mL deionised water) and 50 µL Proteinase K solution (10 mg Proteinase K in 1 mL 5 mM CaCl2). Following a mixing step this was incubated at 37°C for 2.5 hours prior to addition of 250 µL deionised water and placed into the Spark Symbiosis system.
# The Tmax and Cmax on each sampling day were determined for each dose level by visual inspection of the mean data. […]
# [2] = tumour and tissue pharmacokinetics of [3H]-PG545 in Hep3b tumour-bearing mice; format: in vivo; settings: for tumour AUC0-t / tumour Cmax: model independent analysis; for Kt, rate constant of uptake from the tumor / t½b / t½t: one compartment model
# Source text: Analysis of the tumour [^3H]-PG545 concentration vs time data required use of a more physiologically based PK model such that tumour concentrations were estimated from the tumour mass being perfused with blood containing [^3H]-PG545 and where the blood [^3H]-PG545 concentration changed over time.
# Table S1 – Pharmacokinetic analysis of mean tumour [3H]-PG545 concentrations in […]
# Model Independent Analysis of Mean Tumor [3H]-PG545 Conc. Versus Time Data Parameter First Dose Second Dose Third Dose Notes: Cmax and Tmax were derived from visual inspection of the data following Cmax (µ g/ml) 37 45 44 s.c. administration of up to three doses of […]
# One Compartment Model derived from Mean Tumor [3H]-PG545 Conc. Versus Time Data Parameter First Dose Second Dose Third Dose Notes: Based on assumptions including - 1) All processes are linear with no […]
# timeframe of the experiment.
# 3) Tumor [3H]-PG545 conc is driven by the blood conc of [3H]-PG545 t½t (h) 15.7 15.4 16.3 4) Rate of uptake is proportional to blood […]
# 5) Rate of return from tumor to blood is proportional to tumor conc.
# Kb is the rate constant of uptake into the tumor, in h-1
# Kt is the rate constant of uptake from the tumor, in h-1 […]
# as §1, §2, §3, §4, §5, §6, §7
# [3] = tested on: Hep3b2.1-7 tumours; experiment: orthotopic Hep3b2.1-7 human liver cancer model; format: in vivo, mice; settings: 30 mg kg^−1 daily
# Method: (§8) In the orthotopic Hep3b2.1-7 human liver cancer model, treatment of mice (n=10) began 14 days after inoculation of 2.5 × 10^6 cells. […] To initiate tumour xenografts, MDA-MB-231, PC3, Cal27 and HepG2 cells were injected s.c. into nude mice (n=8) at 4, 5, 2 and 2 × 10^7 cells ml^−1, respectively. […] In the B16F0 lung metastasis model, 2 × 10^5 cells were injected via the tail vein of C57Bl6 mice (n=8). […] Surface lung macrometastases were counted for each group (n=9) upon study termination. In the intrasplenic HT-29 xenograft model, 1 × 10^6 cells in 100 μl were injected into the spleen. […] Solid tumours were measured in two dimensions (length and width) and the tumour volume (cm^3) was calculated using the equation: V=length × width^2 × π/6. The anti-tumour activity was expressed as percent tumour growth inhibition (%TGI). Further details are available in Supplementary Methods. […]
# In the Hep3b2.1-7 model, the cells resuspended in HBSS:MatrigelTM (1:1, v/v) to a final concentration of 5 x 10^8 cells/mL were inoculated following an incision into the skin directly over the liver to expose the main lobe of the liver. The needle was introduced into the main lobe of the liver, where 2.5 x 106 Hep3b2.1-7 cells (in 5 µL with 50% Matrigel) were discharged. The treatment of mice began 24 days after inoculation of the […]
# either a once or twice weekly dosing schedule (see figure legends for dose schedules in each study) for up to three weeks. […]
# (§9) efficacy/PK study) using either a once or twice weekly dosing schedule (see figure legends for dose schedules in each study) for up to three weeks. […]
# (§10) In relevant models, solid tumours were measured in two dimensions (length and width) and the tumour volume (mm3) calculated using the equation V = length × width2 × π/6.The anti-tumour activity was assessed by the comparison of the mean tumour volume of the treated groups to the mean tumour volume of the control group and expressed as the percent Tumour Growth Inhibition (TGI) using the equation:
# (§11) %TGI = (1-((VendPG545 - VstartPG545) / (VendControl - VstartControl)))*100 VendPG545 = Ending Tumour Volume of PG545-treated animal
# (§12) VstartPG545 = Starting Tumour Volume of PG545-treated animal
# (§13) VendControl = Ending Tumour Volume of Control animal
# (§14) VstartControl = Starting Tumour Volume of Control animal […]
# (§15) After collection, 0.2 mL of […]
# (§16) whole blood was added to a glass scintillation vial to which 1 mL Solvable was added.
# Samples were incubated for one hour at 55-60°C. 0.1 mL of 0.1 M EDTA-di-sodium salt solution and 0.3 mL to 0.5 mL of 30% hydrogen peroxide in 0.1 mL aliquots were added to the sample. Samples were gently agitated between additions to allow reaction foaming to subside. Samples were incubated for 30 minutes at room temperature. […]
# [4] = tested on: LL/2 tumours and lung metastases; experiment: syngeneic Lewis Lung Carcinoma (LL/2) tumour growth and spontaneous metastasis model; format: in vivo, mice
# Method: as §8, §9
# In the LL/2 mouse model, treatment of mice commenced on the day of inoculation (Day 0). Mice inoculated subcutaneously were treated with either Vehicle Control […]
# once weekly or Sorafenib (60mg/kg, once daily, p.o.). The treatments were continued for three weeks. The lungs were excised from all mice at the time of culling for metastasis […]
# count determination. […]
# as §10, §11, §12, §13, §14, §15, §16, §3, §4
# [5] = 20 mg kg^−1 s.c. every 96 h, three doses
smiles,measurement,setting,value
[3H][C@H]1[C@H](O[C@@H]2O[C@H](COS(=O)(=O)[O-])[C@@H](O[C@H]3O[C@H](COS(=O)(=O)[O-])[C@@H](O[C@H]4O[C@H](COS(=O)(=O)[O-])[C@@H](O[C@H]5O[C@H](COS(=O)(=O)[O-])[C@@H](OS(=O)(=O)[O-])[C@H](OS(=O)(=O)[O-])[C@H]5OS(=O)(=O)[O-])[C@H](OS(=O)(=O)[O-])[C@H]4OS(=O)(=O)[O-])[C@H](OS(=O)(=O)[O-])[C@H]3OS(=O)(=O)[O-])[C@H](OS(=O)(=O)[O-])[C@H]2OS(=O)(=O)[O-])C[C@@H]2CC[C@H]3[C@@H]4CC[C@H]([C@H](C)CCCC(C)C)[C@@]4(C)CC[C@@H]3[C@@]2(C)[C@H]1[3H].[Na+].[Na+].[Na+].[Na+].[Na+].[Na+].[Na+].[Na+].[Na+].[Na+].[Na+].[Na+].[Na+] [[^3H]-PG545],mean blood Cmax (range over doses),[1]; [5],25900 to 29000 ng/mL
same,mean blood Tmax (range over doses),[1]; [5],2 to 6 h
same,mean elimination half-life (t½) in blood,"[1]; 20 mg kg^−1 s.c., up to three bolus doses at 96 h intervals",> 50 h
same,AUC0−t,[1]; first dose,991 µg·h/mL
same,Cmax,[1]; first dose,28000 ng/mL
same,Tmax,[1]; first dose,4 h
same,t½,[1]; first dose,65 h
same,AUC0−t,[1]; second dose,1208 µg·h/mL
same,Cmax,[1]; second dose,26000 ng/mL
same,Tmax,[1]; second dose,2 h
same,AUC0−t,[1]; third dose,1556 µg·h/mL
same,Cmax,[1]; third dose,29000 ng/mL
same,Tmax,[1]; third dose,6 h
same,t½,[1]; third dose,117 h
same,Cmax in kidney,[2]; following a single dose,39 µg/g
same,Cmax in liver,[2]; following a single dose,106 µg/g
same,tumour AUC0-t,[2]; first dose,2800 µ g.h/g
same,tumour Cmax,[2]; first dose,37 µ g/ml
same,tumour AUC0-t,[2]; second dose,3662 µ g.h/g
same,tumour Cmax,[2]; second dose,45 µ g/ml
same,tumour AUC0-t,[2]; third dose,3304 µ g.h/g
same,tumour Cmax,[2]; third dose,44 µ g/ml
same,"Kt, rate constant of uptake from the tumor",[2]; first dose,0.0441 h⁻¹
same,t½b,[2]; first dose,12.8 h
same,t½t,[2]; first dose,15.7 h
same,"Kt, rate constant of uptake from the tumor",[2]; second dose,0.0449 h⁻¹
same,t½b,[2]; second dose,13.3 h
same,t½t,[2]; second dose,15.4 h
same,"Kt, rate constant of uptake from the tumor",[2]; third dose,0.0425 h⁻¹
same,t½b,[2]; third dose,16.5 h
same,t½t,[2]; third dose,16.3 h
same,"t½b, uptake from the bloodstream into the tumour (range over doses)",[2]; one-compartment PK model,12.8 to 16.5 h
same,tumour Cmax (range over doses),"[2]; tumour tissue, 20 mg kg^−1 s.c. every 96 h, three doses",36.6 to 45.1 µg/g
same,tumour Tmax,"[2]; tumour tissue, one dose (first dose)",12 h
same,tumour Tmax,"[2]; tumour tissue, three doses (third dose)",≥ 96 h
same,tumour Tmax,"[2]; tumour tissue, two doses (second dose)",48 h
"CNC(=O)c1cc(Oc2ccc(NC(=O)Nc3ccc(Cl)c(C(F)(F)F)c3)cc2)ccn1 [sorafenib, reference compound]",TGI,[3],58%
same,effect on metastasis,[4]; 60 mg kg^−1 daily,no effect on metastasis
same,TGI (primary tumour),[4]; 60 mg kg^−1 qd,44%
